Reference: patent US4546084A, “Biologically pure culture of Actinomadura Sp” (Bristol-Myers Company, priority 1984, dated 1985)

Legend:
[1] = tested on: lymphocytic leukemia P388; experiment: Antitumor activity in mice against lymphocytic leukemia P388 (Table 8); type: in vivo, mice (BDF1 strain); settings: ip, significant ≥125%
Method: The antitumor activity of BBM-1644 was determined in mice (BDF1 strain) against lymphocytic leukemia P388. Each mouse was inoculated intraperitoneally with 3×10^5 cells of the tumor. Graded doses of the antibiotic were administered to mice intraperitoneally 24 hours after tumor implantation. The treatments were given once a day on days 1, 4 and 7 (q3d ×3 schedule) or 9 consecutive days (qd 1→9 schedule).

P388 leukemia = experiment: Effect on P388 leukemia in mice, second test (Table 9); type: in vivo, CDF1 female mice; settings: D.1,4&7; for Survivors Day 5: Tox <4/6 alive; for MST % T/C: ≥125 significant
Excerpt: Antitumor activity of BBM-1644 was also indicated by a second test against P388 leukemia in mice, the results of which are shown below in Table 9. Details of the methods used in this test have been described in Cancer Chemother. Rep. 3: 1-87 (Part 3), 1972.
10^6 ascites cells, ip (plus titration)
Host: CDF1 .female. mice.
Tox: <4/6 mice alive on Day 5.
MST = median survival time.
Effect: % T/C = (MST treated/MST control) × 100.
Criteria: % T/C ≥ 125 considered significant antitumor

lysogenic bacterium = experiment: Induction of prophage in lysogenic bacterium (ILB); type: cell-based; settings: significant activity: T/C of >3.0
Method: The ability of BBM-1644 to induce prophage in lysogenic bacterium (ILB) was determined by the method of Lein et. al. (Nature 196: 783-784, 1962) using neocarzinostatin as a reference compound. The plaque count was made on agar plates containing test material (T) and control (C). A T/C ratio of the plaque counts of greater than 3 was considered significant and the ILB activity was expressed by the minimum inducing concentration of the test compound.

[2] = tested on: Staphylococcus aureus Smith; experiment: In vitro antimicrobial activity, serial two-fold agar dilution; type: cell-based; settings: nutrient agar medium
Method: (§1) The antibacterial activity of BBM-1644 was determined by the serial two-fold agar dilution method. Nutrient agar medium was used for gram-positive and gram-negative bacteria; nutrient agar medium containing 4% glycerol for acid-fast bacteria and Sabaouraud agar medium for fungi. The activity was expressed as minimum inhibitory concentration (MIC) in the agar medium and the results are shown in Table 6 along with those of neocarzinostatin.

[3] = tested on: Klebsiella pneumoniae D-11; experiment: as above; type: cell-based; settings: nutrient agar medium
Method: as §1

Mycobacterium phlei D88 = experiment: as above; type: cell-based; settings: nutrient agar medium containing 4% glycerol
Method: as §1

Proteus vulgaris A9436 = experiment: as above; type: cell-based; settings: nutrient agar medium
Method: as §1

[4] = tested on: Bacillus subtilis PCI 219; experiment: as above; type: cell-based; settings: nutrient agar medium
Method: as §1

[5] = tested on: Candida albicans IAM 4888; experiment: as above; type: cell-based; settings: Sabouraud agar medium
Method: as §1

Escherichia coli NIHJ = experiment: as above; type: cell-based; settings: nutrient agar medium
Method: as §1

[6] = tested on: Staphylococcus aureus FDA 209P; experiment: as above; type: cell-based; settings: nutrient agar medium
Method: as §1

[7] = tested on: Mycobacterium smegmatis 607 D87; experiment: as above; type: cell-based; settings: nutrient agar medium containing 4% glycerol
Method: as §1

[8] = tested on: Streptococcus pyogenes A20201; experiment: as above; type: cell-based; settings: nutrient agar medium
Method: as §1

[9] = tested on: Pseudomonas aeruginosa A9930; experiment: as above; type: cell-based; settings: nutrient agar medium
Method: as §1

Micrococcus flavus D12 = experiment: as above; type: cell-based; settings: nutrient agar medium
Method: as §1

[10] = tested on: Micrococcus luteus PCI 1001; experiment: as above; type: cell-based; settings: nutrient agar medium
Method: as §1

With Neocarzinostatin the “T/C (%) in MST” value ([1]; 0.01 mg/kg/day, gd 1→9) was 113%, the “T/C (%) in MST” value ([1]; 0.03 mg/kg/day, gd 1→9) was 125% and the “T/C (%) in MST” value ([1]; 0.03 mg/kg/day, q3d × 3) was 113%. The “T/C (%) in MST” value ([1]; 0.1 mg/kg/day, gd 1→9) was 138%, the “T/C (%) in MST” value ([1]; 0.1 mg/kg/day, q3d × 3) was 125% and the “T/C (%) in MST” value ([1]; 0.3 mg/kg/day, gd 1→9) was 163%. The “T/C (%) in MST” value ([1]; 0.3 mg/kg/day, q3d × 3) was 150%, the “T/C (%) in MST” value ([1]; 1 mg/kg/day, q3d × 3) was 163% and the “AWC d.6” value (P388 leukemia; 0.05 mg/kg/inj IP) was -1.7 gm. For the same substance, the MST (P388 leukemia; 0.05 mg/kg/inj IP) was 12.0 days, the “Survivors Day 5” value (P388 leukemia; 0.05 mg/kg/inj IP) was 6/6 and the “MST % T/C” value (P388 leukemia; 0.05 mg/kg/inj IP) was 133%. For the same substance, the “AWC d.6” value (P388 leukemia; 0.1 mg/kg/inj IP) was -1.2 gm, the MST (P388 leukemia; 0.1 mg/kg/inj IP) was 13.5 days and the “Survivors Day 5” value (P388 leukemia; 0.1 mg/kg/inj IP) was 6/6. For the same substance, the “MST % T/C” value (P388 leukemia; 0.1 mg/kg/inj IP) was 150%, the “AWC d.6” value (P388 leukemia; 0.2 mg/kg/inj IP) was -2.5 gm and the MST (P388 leukemia; 0.2 mg/kg/inj IP) was 15.0 days. The “Survivors Day 5” value (P388 leukemia; 0.2 mg/kg/inj IP) was 6/6, the “MST % T/C” value (P388 leukemia; 0.2 mg/kg/inj IP) was 167% and the “AWC d.6” value (P388 leukemia; 0.4 mg/kg/inj IP) was -3.2 gm. The MST (P388 leukemia; 0.4 mg/kg/inj IP) was 15.5 days, the “Survivors Day 5” value (P388 leukemia; 0.4 mg/kg/inj IP) was 6/6 and the “MST % T/C” value (P388 leukemia; 0.4 mg/kg/inj IP) was 172%. For the same substance, the “AWC d.6” value (P388 leukemia; 0.8 mg/kg/inj IP) was -4.3 gm, the MST (P388 leukemia; 0.8 mg/kg/inj IP) was 10.5 days and the “Survivors Day 5” value (P388 leukemia; 0.8 mg/kg/inj IP) was 6/6. The “MST % T/C” value (P388 leukemia; 0.8 mg/kg/inj IP) was 117%, the “AWC d.6” value (P388 leukemia; 1.6 mg/kg/inj IP) was -4.8 gm and the MST (P388 leukemia; 1.6 mg/kg/inj IP) was 8.0 days. For the same substance, the “Survivors Day 5” value (P388 leukemia; 1.6 mg/kg/inj IP) was 6/6, the “MST % T/C” value (P388 leukemia; 1.6 mg/kg/inj IP) was 89% and the “ILB activity (T/C)” value (lysogenic bacterium; 0.1 mcg/ml) was 0.7. The “ILB activity (T/C)” value (lysogenic bacterium; 1 mcg/ml) was 10.8, the “ILB activity (T/C)” value (lysogenic bacterium; 10 mcg/ml) was 20.4 and the “ILB activity (T/C)” value (lysogenic bacterium; 100 mcg/ml) was 28.6. For the same substance, the MIC [2] was 0.8 µg/mL, the MIC [3] was over 100 µg/mL and the MIC (Mycobacterium phlei D88) was 12.5 µg/mL. The MIC (Proteus vulgaris A9436) was over 100 µg/mL, the MIC [4] was 3.1 µg/mL and the MIC [5] was over 100 µg/mL. For the same substance, the MIC (Escherichia coli NIHJ) was over 100 µg/mL, the MIC [6] was 1.6 µg/mL and the MIC [7] was 50 µg/mL. The MIC [8] was 3.1 µg/mL, the MIC [9] was over 100 µg/mL and the MIC (Micrococcus flavus D12) was 1.6 µg/mL. The MIC [10] was 1.6 µg/mL.
